Test results as given in US8362034B2, “Quinoline compound, and composition containing centipede extract or compounds isolated therefrom for prevention and treatment of cardiovascular disease” (Korea Research Institute of Bioscience and Biotechnology, priority 2005, dated 2013).

Assays:
LDL = experiment: LDL-antioxidant activity by TBARS (Cu2+-mediated LDL-oxidation); assay type: biochemical, human
Description: Ed., Methods in Enzymology. Vol. 234, Oxygen radicals in biological systems Part D. Academic press, San Diego, 1994]. Three hundred ml of human plasma was taken, followed by centrifugation at 100,000×g for 24 hours with an ultracentrifuge. VLDL/chylomicrom layer floating in the supernatant was eliminated. […] At that time, the compounds were dissolved in dimethylsulfoxide (DMSO) and diluted at different concentrations to be ready for the experiment. DMSO alone was used as a negative control. As a positive control, probucol, a known antioxidant, was added. To each solution was added 10 μl of 0.25 mM CuSO4, followed by reaction at 37° C. for 4 hours. The reaction was terminated by addition of 1 ml of 20% trichloroacetic acid (TCA) solution. 1 ml of 0.67% TBA solution dissolved in 0.05 N NaOH solution was added thereto, followed by stirring for 10 seconds. The solution was heated at 95° C. for 5 minutes to induce color development and then cooled down with ice water. The solution was centrifuged at 3000 rpm for 5 minutes to separate the supernatant and OD540 was measured with UV/VIS spectrophotometer to measure the level of malondialdehyde (MDA) generated by the color development. In the meantime, to calculate the standard curve of malondialdehyde, the stock solution of malonaldehyde bis (dimethylacetal) was diluted, resulting in PBS standard solution containing 0˜10 nmol malondialdehyde. […] The malondialdehyde generated from the compounds of the invention was quantified and inhibitory activity and IC50 were also calculated.

hACAT-1 = target: T1, hACAT-1 (Homo sapiens, UniProt P35610); experiment: ACAT activity, hACAT-1 microsomes, [1-14C]oleoyl-CoA; assay type: biochemical; details: 100 μg/ml; read-out: Inhibitory activity (%) hACAT-1
T1 construct: made in house; host or cells: baculovirus; virus produced in sf9, protein expressed in Hi5 insect cells; microsome fraction used
T1 sequence (P35610 1-550): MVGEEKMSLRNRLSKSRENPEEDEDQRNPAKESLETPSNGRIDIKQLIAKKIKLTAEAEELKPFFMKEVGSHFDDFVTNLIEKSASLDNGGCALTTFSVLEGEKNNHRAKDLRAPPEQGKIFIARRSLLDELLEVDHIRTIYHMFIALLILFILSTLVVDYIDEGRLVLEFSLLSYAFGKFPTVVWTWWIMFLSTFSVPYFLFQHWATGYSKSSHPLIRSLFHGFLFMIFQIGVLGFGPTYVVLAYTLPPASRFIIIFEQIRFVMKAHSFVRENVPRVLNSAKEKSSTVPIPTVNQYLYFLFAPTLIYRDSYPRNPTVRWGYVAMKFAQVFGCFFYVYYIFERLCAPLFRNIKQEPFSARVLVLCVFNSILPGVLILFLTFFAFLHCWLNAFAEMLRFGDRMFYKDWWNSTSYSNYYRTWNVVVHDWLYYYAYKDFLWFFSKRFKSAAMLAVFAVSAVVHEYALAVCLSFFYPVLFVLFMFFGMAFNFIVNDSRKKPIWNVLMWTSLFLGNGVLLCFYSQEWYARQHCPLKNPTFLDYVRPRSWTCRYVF
Source text: (§1) To investigate the effect on human ACAT-1 and ACAT-2 activities, hACAT-1 and hACAT-2 proteins were obtained using baculovirus expression system.
(§2) hACAT-1 and hACAT-2 cDNAs, obtained by human liver cDNA library screening, were inserted into the baculovirus transfer vector, which was introduced into an insect cell line sf9 to produce virus. Then, recombinant virus of each hACAT-1 and hACAT-2 was separated by plaque purification, followed by amplification three times to raise titer of the viral stock. Hi5 insect cells having high protein expression efficiency were infected with the recombinant virus (1 multiplicity of infection), followed by shaking culture at 27° C. for a day. Centrifugation was performed at 500×g for 15 minutes to separate microsome fractions from Hi5 cells over-expressing hACAT-1 and hACAT-2. The resultant cells were lysed in a hypotonic buffer by quick freezing-quick thawing, followed by ultracentrifugation at 100,000×g for one hour. The obtained microsome fractions were suspended in the hypotonic buffer until the concentration of the protein reached 8 mg/ml, which was stored in a deep freezer until use.
(§3) To measure the ACAT activity, [1-^14C] oleoly-CoA (56.0 μCi/μmol; Amersham) was used as a substrate and a method of Brecher & Chan was used with a slight modification [P. Brecher and C. Chan, Biochem. Biophys. Acta, 617, 458, 1980].
(§4) Ten μl of the centipede extracts or the compound prepared in the above Example was mixed with 4.0 μl of the microsomal solution prepared in Experimental Example <2-1>, 20.0 μl of an activity analyzing buffer (0.5 M KH2PO4, 10 mM DTT, pH 7.4; Sigma), 15.0 μl of fatty acid-free bovine serum albumin (fatty acid-free BSA, stock concentration 40 mg/ml; Sigma), 2.0 μl of cholesterol (stock solution 20 mg/ml; Sigma) and 41.0 μl of distilled water, which was preincubated at 37° C. for 15 minutes. […] The radioactivity of the mixture was measured with 1450 Microbeta liquid scintillation counter (Wallacoy).
(§5) ACAT activity was calculated as pmol of cholesteryl oleate synthesized per 1 mg of protein in one minute (pmol/minute/mg of protein).

hACAT-2 = target: T2, hACAT-2 (Homo sapiens, UniProt O75908); experiment: ACAT activity, hACAT-2 microsomes, [1-14C]oleoyl-CoA; assay type: biochemical; details: 100 μg/ml; read-out: Inhibitory activity (%) hACAT-2
T2 construct: made in house; host or cells: baculovirus; virus produced in sf9, protein expressed in Hi5 insect cells; microsome fraction used
T2 sequence (O75908 1-522): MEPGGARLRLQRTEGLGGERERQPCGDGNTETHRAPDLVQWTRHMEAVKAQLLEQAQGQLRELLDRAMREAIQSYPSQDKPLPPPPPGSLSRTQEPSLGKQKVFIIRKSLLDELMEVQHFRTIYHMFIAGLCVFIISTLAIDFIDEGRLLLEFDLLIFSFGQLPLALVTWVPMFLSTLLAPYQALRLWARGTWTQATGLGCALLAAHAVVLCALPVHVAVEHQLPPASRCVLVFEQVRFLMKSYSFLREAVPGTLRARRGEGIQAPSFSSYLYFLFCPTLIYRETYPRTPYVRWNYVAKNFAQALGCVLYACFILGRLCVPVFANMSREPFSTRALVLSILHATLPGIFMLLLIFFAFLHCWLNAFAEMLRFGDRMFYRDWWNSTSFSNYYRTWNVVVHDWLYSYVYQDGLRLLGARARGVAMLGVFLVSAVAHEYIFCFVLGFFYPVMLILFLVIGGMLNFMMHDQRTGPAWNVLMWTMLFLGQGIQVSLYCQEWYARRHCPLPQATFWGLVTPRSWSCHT
Source text: as §1, §2, §3, §4, §5

| SMILES | IC50 (LDL) [µM] | inhibition at 100 µg/mL (hACAT-1) [%] | inhibition at 100 µg/mL (hACAT-2) [%] |
| --- | --- | --- | --- |
| Oc1cnc2c(O)cccc2c1 [Compound 1, 3,8-dihydroxyquinoline] | 2.6 | 60 | 50 |
| COc1c(O)nc2c(O)cccc2c1OC [Compound 2, 3,4-dimethoxyquinoline-2,8-diol] | 63 | 79 | 58 |
| CC(C)(C)c1ccc(O)c(C(C)(C)C)c1 [Compound 3, 2,4-di-tert-butylphenol] | 8.2 | 63 | 51 |
| CC(C)(Sc1cc(C(C)(C)C)c(O)c(C(C)(C)C)c1)Sc1cc(C(C)(C)C)c(O)c(C(C)(C)C)c1 [Probucol, probucol, reference compound] | 3.1 |  |  |
